The values that follow are results of earlier work, collected in patent publication US9820956B2, “Compositions and methods for treating metabolic disorders” (PreKUlab, Ltd., priority 2003, dated 2017).

SMILES strings stand for the structures. Like-named read-outs stand apart in the source and are kept apart here.

Data set [1] has as its system BBB transport system for basic amino acids.
The subject of data set [2] is BBB transport system for acidic amino acids.
In data set [3] the test system is intestinal epithelia transport.
The subject of data set [4] is Phe transport in Caco-2 cells. The conditions noted are these: for % inhibition of Phe transport: 10 μM Phe, 1 mM of each competing amino acid, Caco-2 monolayers; for inhibition of Phe transport in human intestinal epithelial cells (in words): Caco-2. Background: Caco-2 monolayers are a common model of the intestinal barrier.
The test system of data set [5] is LNAA transport system in the BBB.
The mark [6] stands for this setting: absolute Km at BBB, basic amino acids, read-out: Km.
Setting [7] is: apparent Km at BBB, basic aa's, read-out: Km(app).
Setting [8] is: absolute Km at BBB, neutral amino acid system, read-out: Km.
Where [9] appears, read: apparent Km at BBB in presence of competing LNAAs, LNAA's, read-out: Km(app).

As a reminder, the Km is the substrate concentration at which the rate is half of its maximum. Regarding `N=C(N)NCCC[C@H](N)C(=O)O` [Arg, arginine], the results for the Km in data set [1] (setting [6]) and in data set [1] (setting [7]) were 90 µM and 400 µM, respectively.
`N[C@@H](CCC(=O)O)C(=O)O` [Glu]: in data set [2], the Michaelis constant (Km) is 40 µM.
For the compound `N[C@@H](Cc1c[nH]cn1)C(=O)O` [His, histidine], the Km is 280 µM in data set [1] (setting [6]), 1100 µM in data set [1] (setting [7]) and 6 mM in data set [3]. Moreover, in data set [4], the “% inhibition of Phe transport” value is given as 33%.
`CC(C)C[C@H](N)C(=O)O` [Leu, leucine]: the Km is 150 µM in data set [5] (setting [8]), 530 µM in data set [5] (setting [9]) and 2 mM in data set [3]. In addition, the “% inhibition of Phe transport” value in data set [4] is recorded as 55%. The “inhibition of Phe transport in human intestinal epithelial cells (in words)” value in data set [4] is reported as “strong inhibitor”.
In the case of `NCCCC[C@H](N)C(=O)O` [Lys, lysine], in data set [1] (setting [6]), the Michaelis constant (Km) was 100 µM. Moreover, the Km in data set [1] (setting [7]) is 250 µM. Further, in data set [4], the “% inhibition of Phe transport” value is on record as 50% and the “inhibition of Phe transport in human intestinal epithelial cells (in words)” value is “strong inhibition”.
`CSCC[C@H](N)C(=O)O` [Met, methionine]: the Km in data set [5] (setting [8]) is 190 µM; in data set [5] (setting [9]), 770 µM; in data set [3], 5 mM.
As to `N[C@@H](Cc1ccccc1)C(=O)O` [Phe, phenylalanine], the Michaelis constant (Km) in data set [5] (setting [8]) was 120 µM; in data set [5] (setting [9]), 450 µM; in data set [3], 1 mM; in data set [4] (Caco-2, measured by Hidalgo, read-out: Km for Phe at the intestinal cell transport system) it was 560 µM.
On to `C[C@@H](O)[C@H](N)C(=O)O` [Threo], for which the Michaelis constant (Km) in data set [5] (setting [8]) was 730 µM; in data set [5] (setting [9]), 3000 µM.
Take `N[C@@H](Cc1c[nH]c2ccccc12)C(=O)O` [Trp, tryptophan]: the figures for the Km in data set [5] (setting [8]) and in data set [5] (setting [9]) were 190 µM and 710 µM, respectively. In data set [4], the “% inhibition of Phe transport” value is on record as 36%.
For `N[C@@H](Cc1ccc(O)cc1)C(=O)O` [Tyr, tyrosine], the Michaelis constant (Km) in data set [5] (setting [8]) is 160 µM; in data set [5] (setting [9]), 580 µM. Further, the “% inhibition of Phe transport” value in data set [4] is recorded as 45%.
Regarding `CC(C)[C@H](N)C(=O)O` [Val, valine], the Km in data set [5] (setting [8]) is 630 µM; in data set [5] (setting [9]) it was 2500 µM; in data set [3], 3 mM.
For the compound `CC[C@H](C)[C@H](N)C(=O)O` [iLeu, isoleucine], the Km in data set [5] (setting [8]) is 330 µM; in data set [5] (setting [9]), 1300 µM.
